Reference: US20180371044A1, “PEPTIDOMIMETIC MACROCYCLES” (Aileron Therapeutics, Inc., priority 2015, published 2018)
Where a SMILES comes first, the peptide text is derived from it. Bridges are numbered along the chain shown (N, C = ends). [ ]: non-standard residue; d: D form. NMeY = CN[C@@H](Cc1ccc(O)cc1)C(=O)O; R8 = C=CCCCCCC[C@@](C)(N)C(=O)O; Cit = NC(=O)NCCC[C@H](N)C(=O)O; S5 = C=CCCC[C@](C)(N)C(=O)O; Nle = CCCC[C@H](N)C(=O)O; Aib = CC(C)(N)C(=O)O

The compounds below were run against T1, human GHRH receptor (hGHRHR) (Homo sapiens, UniProt Q02643) (assay: GHRHR agonism measured by cAMP (HTRF) in human 293 cells expressing hGHRHR). Conditions: 30 min at RT.
T1 construct: expressed in transfected cells; host or cells: Human 293 cells
T1 sequence (Q02643 23-423): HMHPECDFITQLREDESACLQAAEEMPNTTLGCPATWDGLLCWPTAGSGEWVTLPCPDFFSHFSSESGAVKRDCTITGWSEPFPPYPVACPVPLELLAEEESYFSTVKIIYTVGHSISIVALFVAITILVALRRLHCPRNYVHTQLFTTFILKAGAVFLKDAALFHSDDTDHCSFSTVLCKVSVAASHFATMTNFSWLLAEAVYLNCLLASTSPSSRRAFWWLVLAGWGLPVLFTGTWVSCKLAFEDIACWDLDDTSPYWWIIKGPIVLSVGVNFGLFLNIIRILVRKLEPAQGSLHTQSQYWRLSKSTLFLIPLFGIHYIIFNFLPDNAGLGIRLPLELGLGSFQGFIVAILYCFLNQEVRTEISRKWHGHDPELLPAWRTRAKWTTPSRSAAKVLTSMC
Format: cell-based
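Further: receptor expressed transiently or stably, cells stimulated in serum-free medium, EC50 from a non-linear dose-response fit, maximal response defined by reference GHRH stimulation.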

First: CCCC[C@H](NC(=O)[C@@H](NC(=O)[C@H](CC(=O)O)NC(=O)[C@H](CCC(N)=O)NC(=O)[C@H](CC(C)C)NC(=O)[C@H](CC(C)C)NC(=O)[C@H](CCCCN)NC(=O)[C@H](CCCNC(=N)N)NC(=O)[C@]1(C)CCCC=CCCCCCC[C@@](C)(NC(=O)[C@H](CCCNC(=N)N)NC(=O)[C@H](Cc2ccc(O)cc2)NC(=O)[C@H](CO)NC(=O)[C@H](CC(N)=O)NC(=O)[C@@H](NC(=O)[C@H](Cc2ccccc2)NC(=O)[C@@H](NC(=O)[C@H](C)NC(=O)[C@H](CC(=O)O)NC(=O)[C@@H](C)NC(=O)[C@@H](N)Cc2ccc(O)cc2)[C@@H](C)CC)[C@@H](C)O)C(=O)N[C@@H](C(C)C)C(=O)N[C@@H](CC(C)C)C(=O)NCC(=O)N[C@@H](CCC(N)=O)C(=O)N[C@@H](CC(C)C)C(=O)N[C@@H](CO)C(=O)N1)[C@@H](C)CC)C(=O)N[C@@H](CO)C(=O)N[C@@H](CCCNC(=N)N)C(N)=O [SP-4] (H-Y[dA]DAIFTNSYR[R8]VLGQLS[S5]RKLLQDI[Nle]SR-NH2; staple 12-19)
Second: CCCC[C@H](NC(=O)[C@H](C)NC(=O)[C@H](CC(=O)O)NC(=O)[C@H](CCC(N)=O)NC(=O)[C@H](CC(C)C)NC(=O)[C@H](C)NC(=O)[C@H](CCCCN)NC(=O)[C@H](CCCNC(=N)N)NC(=O)[C@]1(C)CCCC=CCCCCCC[C@@](C)(NC(=O)[C@H](CCCNC(=N)N)NC(=O)[C@H](Cc2ccc(O)cc2)NC(=O)[C@H](CO)NC(=O)[C@H](C)NC(=O)[C@@H](NC(=O)[C@H](Cc2ccccc2)NC(=O)[C@@H](NC(=O)[C@H](C)NC(=O)[C@H](CC(=O)O)NC(=O)[C@H](C)NC(=O)[C@H](Cc2ccc(O)cc2)NC)[C@@H](C)CC)[C@@H](C)O)C(=O)N[C@@H](C(C)C)C(=O)N[C@@H](CC(C)C)C(=O)N[C@@H](C)C(=O)N[C@@H](CCC(N)=O)C(=O)N[C@@H](CC(C)C)C(=O)N[C@@H](CO)C(=O)N1)C(=O)N[C@@H](CO)C(=O)N[C@@H](CCCNC(=N)N)C(N)=O [SP-62] (H-[NMeY]ADAIFTASYR[R8]VLAQLS[S5]RKALQDA[Nle]SR-NH2; staple 12-19)
The EC50 of the first is lower: 10 to 25 nM for the first, 25 to 50 nM for the second.

`CCCC[C@H](NC(=O)[C@@H](NC(=O)[C@H](CC(=O)O)NC(=O)[C@H](CCC(N)=O)NC(=O)[C@H](CC(C)C)NC(=O)[C@H](C)NC(=O)[C@H](CCCCN)NC(=O)[C@H](CCCNC(=N)N)NC(=O)[C@H](C)NC(=O)[C@H](CO)NC(=O)[C@H](CC(C)C)NC(=O)[C@H](CCC(N)=O)NC(=O)[C@H](C)NC(=O)[C@H](CC(C)C)NC(=O)[C@@H](NC(=O)[C@H](CCCCN)NC(=O)[C@H](CCCNC(=N)N)NC(=O)[C@H](Cc1ccc(O)cc1)NC(=O)[C@H](CO)NC(=O)[C@H](C)NC(=O)[C@@H](NC(=O)[C@H](Cc1ccccc1)NC(=O)[C@@H](NC(=O)[C@H](C)NC(=O)[C@H](CC(=O)O)NC(=O)[C@H](C)NC(=O)[C@H](Cc1ccc(O)cc1)NC)[C@@H](C)CC)[C@@H](C)O)C(C)C)[C@@H](C)CC)C(=O)N[C@@H](CO)C(=O)N[C@@H](CCCNC(N)=O)C(N)=O` [SP-49] (H-[NMeY]ADAIFTASYRKVLAQLSARKALQDI[Nle]S[Cit]-NH2) and `CCCC[C@H](NC(=O)[C@@H](NC(=O)[C@H](CC(=O)O)NC(=O)[C@H](CCC(N)=O)NC(=O)[C@H](CC(C)C)NC(=O)[C@H](C)NC(=O)[C@H](CCCCN)NC(=O)[C@H](CCCNC(=N)N)NC(=O)[C@H](C)NC(=O)[C@H](CO)NC(=O)[C@H](CC(C)C)NC(=O)[C@H](CCC(N)=O)NC(=O)[C@H](C)NC(=O)[C@H](CC(C)C)NC(=O)[C@@H](NC(=O)[C@H](CCCCN)NC(=O)[C@H](CCCNC(=N)N)NC(=O)[C@H](Cc1ccc(O)cc1)NC(=O)[C@H](CO)NC(=O)[C@H](C)NC(=O)[C@@H](NC(=O)[C@H](Cc1ccccc1)NC(=O)[C@@H](NC(=O)[C@H](C)NC(=O)[C@H](CC(=O)O)NC(=O)[C@H](C)NC(=O)[C@H](Cc1ccc(O)cc1)NC)[C@@H](C)CC)[C@@H](C)O)C(C)C)[C@@H](C)CC)C(=O)N[C@@H](CC(=O)O)C(=O)N[C@@H](CCCNC(=N)N)C(N)=O` [SP-45] (H-[NMeY]ADAIFTASYRKVLAQLSARKALQDI[Nle]DR-NH2) cannot be ordered by EC50: at most 1 nM for the first, at most 1 nM for the second.

`CCCC[C@H](NC(=O)[C@@H](NC(=O)[C@H](CC(=O)O)NC(=O)[C@H](CCC(N)=O)NC(=O)[C@H](CC(C)C)NC(=O)[C@H](C)NC(=O)[C@H](CCCCN)NC(=O)[C@H](CCCNC(=N)N)NC(=O)[C@]1(C)CCCC=CCCCCCC[C@@](C)(NC(=O)[C@H](CCCNC(=N)N)NC(=O)[C@H](Cc2ccc(O)cc2)NC(=O)[C@H](CO)NC(=O)[C@H](C)NC(=O)[C@@H](NC(=O)[C@H](Cc2ccccc2)NC(=O)[C@@H](NC(=O)[C@H](C)NC(=O)[C@H](CC(=O)O)NC(=O)[C@H](C)NC(=O)[C@H](Cc2ccc(O)cc2)NC)[C@@H](C)CC)[C@@H](C)O)C(=O)N[C@@H](C(C)C)C(=O)N[C@@H](CC(C)C)C(=O)N[C@@H](C)C(=O)N[C@@H](CCC(N)=O)C(=O)N[C@@H](CC(C)C)C(=O)N[C@@H](CO)C(=O)N1)[C@@H](C)CC)C(=O)N[C@@H](CO)C(=O)N[C@@H](CCCNC(=N)N)C(=O)N[C@@H](CCC(=O)O)C(=O)N[C@@H](CCC(=O)O)C(=O)N[C@@H](CCC(=O)O)C(N)=O` [SP-59] (H-[NMeY]ADAIFTASYR[R8]VLAQLS[S5]RKALQDI[Nle]SREEE-NH2; staple 12-19) and `CCCC[C@H](NC(=O)[C@@H](NC(=O)[C@H](CC(=O)O)NC(=O)[C@H](CCC(N)=O)NC(=O)[C@H](CC(C)C)NC(=O)[C@H](C)NC(=O)[C@H](CCCCN)NC(=O)[C@H](CCCNC(=N)N)NC(=O)[C@]1(C)CCCC=CCCCCCC[C@@](C)(NC(=O)[C@H](CCCNC(=N)N)NC(=O)[C@H](Cc2ccc(O)cc2)NC(=O)[C@H](CO)NC(=O)[C@H](C)NC(=O)[C@@H](NC(=O)[C@H](Cc2ccccc2)NC(=O)[C@@H](NC(=O)[C@H](C)NC(=O)[C@H](CC(=O)O)NC(=O)[C@H](C)NC(=O)[C@H](Cc2ccc(O)cc2)NC)[C@@H](C)CC)[C@@H](C)O)C(=O)N[C@@H](C(C)C)C(=O)N[C@@H](CC(C)C)C(=O)N[C@@H](C)C(=O)N[C@@H](CCC(N)=O)C(=O)N[C@@H](CC(C)C)C(=O)N[C@@H](CO)C(=O)N1)[C@@H](C)CC)C(=O)N[C@@H](CO)C(N)=O` [SP-60] (H-[NMeY]ADAIFTASYR[R8]VLAQLS[S5]RKALQDI[Nle]S-NH2; staple 12-19) fall in the same range of EC50: 25 to 50 nM for the first, 25 to 50 nM for the second.

`CCCC[C@H](NC(=O)[C@@H](NC(=O)[C@H](CC(=O)O)NC(=O)[C@]1(C)CCCC=CCCCCCC[C@@](C)(NC(=O)[C@H](CCC(N)=O)NC(=O)[C@H](C)NC(=O)[C@H](CC(C)C)NC(=O)[C@@H](NC(=O)[C@H](CCCCN)NC(=O)[C@H](CCCNC(=N)N)NC(=O)[C@H](Cc2ccc(O)cc2)NC(=O)[C@H](CO)NC(=O)[C@H](C)NC(=O)[C@@H](NC(=O)[C@H](Cc2ccccc2)NC(=O)[C@@H](NC(=O)[C@H](C)NC(=O)[C@H](CC(=O)O)NC(=O)[C@H](C)NC(=O)[C@H](Cc2ccc(O)cc2)NC)[C@@H](C)CC)[C@@H](C)O)C(C)C)C(=O)N[C@@H](CO)C(=O)N[C@@H](C)C(=O)N[C@@H](CCCNC(=N)N)C(=O)N[C@@H](CCCCN)C(=O)N[C@@H](C)C(=O)N[C@@H](CC(C)C)C(=O)N1)[C@@H](C)CC)C(=O)N[C@@H](CO)C(=O)N[C@@H](CCCNC(=N)N)C(N)=O` [SP-29] (H-[NMeY]ADAIFTASYRKVLAQ[R8]SARKAL[S5]DI[Nle]SR-NH2; staple 17-24) and `CCCC[C@H](NC(=O)[C@@H](NC(=O)[C@H](CC(=O)O)NC(=O)C(C)(C)NC(=O)[C@H](CC(C)C)NC(=O)[C@H](C)NC(=O)[C@H](CCCCN)NC(=O)[C@H](CCCNC(=N)N)NC(=O)[C@H](C)NC(=O)[C@H](CO)NC(=O)[C@H](CC(C)C)NC(=O)[C@H](CCC(N)=O)NC(=O)[C@H](C)NC(=O)[C@H](CC(C)C)NC(=O)[C@@H](NC(=O)[C@H](CCCCN)NC(=O)[C@H](CCCNC(=N)N)NC(=O)[C@H](Cc1ccc(O)cc1)NC(=O)[C@H](CO)NC(=O)C(C)(C)NC(=O)[C@@H](NC(=O)[C@H](Cc1ccccc1)NC(=O)[C@@H](NC(=O)[C@H](C)NC(=O)[C@H](CC(=O)O)NC(=O)[C@H](C)NC(=O)[C@H](Cc1ccc(O)cc1)NC)[C@@H](C)CC)[C@@H](C)O)C(C)C)[C@@H](C)CC)C(=O)N[C@@H](CO)C(=O)N[C@@H](CCCNC(=N)N)C(N)=O` [SP-53] (H-[NMeY]ADAIFT[Aib]SYRKVLAQLSARKAL[Aib]DI[Nle]SR-NH2) fall in the same range of EC50: 1 to 10 nM for the first, 1 to 10 nM for the second.

Work on `CCCC[C@H](NC(=O)[C@@H](NC(=O)[C@H](CC(=O)O)NC(=O)[C@H](CCC(N)=O)NC(=O)[C@H](CC(C)C)NC(=O)[C@H](C)NC(=O)[C@H](CCCCN)NC(=O)[C@H](CCCNC(=N)N)NC(=O)[C@H](C)NC(=O)[C@H](CO)NC(=O)[C@H](CC(C)C)NC(=O)[C@H](CCC(N)=O)NC(=O)[C@H](C)NC(=O)[C@H](CC(C)C)NC(=O)[C@@H](NC(=O)[C@H](CCCCN)NC(=O)[C@H](CCCNC(=N)N)NC(=O)[C@H](Cc1ccc(O)cc1)NC(=O)[C@H](CO)NC(=O)[C@@H](NC(=O)[C@@H](NC(=O)[C@H](Cc1ccccc1)NC(=O)[C@@H](NC(=O)[C@H](C)NC(=O)[C@H](CC(=O)O)NC(=O)[C@H](C)NC(=O)[C@H](Cc1ccc(O)cc1)NC)[C@@H](C)CC)[C@@H](C)O)[C@@H](C)O)C(C)C)[C@@H](C)CC)C(=O)N[C@@H](CO)C(=O)N[C@@H](CCCNC(=N)N)C(N)=O` [SP-42] (H-[NMeY]ADAIFTTSYRKVLAQLSARKALQDI[Nle]SR-NH2) yielded an EC50 of 1 to 10 nM.
